ChEMBL document CHEMBL1201862, “PubChem BioAssay data set” (2004)
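1) Cells in 96-well plates. 2) Compound, 48 h, 5 concentrations. 3) Linear interpolation between surrounding doses. 4) Unreached endpoint = highest concentration. Abbreviation: GI50, concentration required for 50% inhibition of growth.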 Calls of active or inactive are those of the source. No stated cut-off is given here; in the data, active = GI50 up to about 1.1 µM and inactive = higher.

Key:
Assay in all cases: growth of human tumour cells (NCI), 48 h
NCI-H226 = test system: NCI-H226
K562 = test system: K562
EKVX = test system: EKVX
ACHN = test system: ACHN
M14 = test system: M14
NCI/ADR-RES = test system: NCI/ADR-RES
COLO 205 = test system: COLO 205
SW-620 = test system: SW-620
HOP-92 = test system: HOP-92
OVCAR-5 = test system: OVCAR-5
Malme-3M = test system: Malme-3M
HL-60 = test system: HL-60
UACC-62 = test system: UACC-62
OVCAR-4 = test system: OVCAR-4
OVCAR-8 = test system: OVCAR-8
PC-3 = test system: PC-3
SK-MEL-2 = test system: SK-MEL-2
CAKI-1 = test system: CAKI-1
SNB-75 = test system: SNB-75

Row | SMILES | GI50 (NCI-H226) | GI50 (K562) | GI50 (EKVX) | GI50 (ACHN) | GI50 (M14) | GI50 (NCI/ADR-RES) | GI50 (COLO 205) | GI50 (SW-620) | GI50 (HOP-92) | GI50 (OVCAR-5) | GI50 (Malme-3M) | GI50 (HL-60) | GI50 (UACC-62) | GI50 (OVCAR-4) | GI50 (OVCAR-8) | GI50 (PC-3) | GI50 (SK-MEL-2) | GI50 (CAKI-1) | GI50 (SNB-75)
1 | CC1(C)CN=C(Nc2ccc(F)c(Cl)c2)S1 | > 100 µM (inactive) | > 100 µM (inactive) | > 100 µM (inactive) | > 100 µM (inactive) | > 100 µM (inactive) | > 100 µM (inactive) | > 100 µM (inactive) | > 100 µM (inactive) | > 100 µM (inactive) | > 100 µM (inactive) | > 100 µM (inactive) | > 100 µM (inactive) | > 100 µM (inactive) | > 100 µM (inactive) | > 100 µM (inactive) | > 100 µM (inactive) | > 100 µM (inactive) | > 100 µM (inactive) | > 100 µM (inactive)
2 | CCOC(=O)C1(C#N)OC(=O)c2cnccc21 (stereo unspecified) | > 100 µM (inactive) | > 100 µM (inactive) | > 100 µM (inactive) | 58.6 µM (inactive) | > 100 µM (inactive) | > 100 µM (inactive) | > 100 µM (inactive) | > 100 µM (inactive) | > 100 µM (inactive) | > 100 µM (inactive) | > 100 µM (inactive) | > 100 µM (inactive) | > 100 µM (inactive) | > 100 µM (inactive) | > 100 µM (inactive) | > 100 µM (inactive) | > 100 µM (inactive) | > 100 µM (inactive) | > 100 µM (inactive)
3 | CC(C)=CCC[C@@H](C)C1=C(O)C(=O)C(C)=C(N)C1=O | 20.8 µM (inactive) | 23.2 µM (inactive) | 36.1 µM (inactive) | 18 µM (inactive) | 20.5 µM (inactive) | 3.9 µM (inactive) | 27.9 µM (inactive) | 43.1 µM (inactive) | 53.8 µM (inactive) | 81.5 µM (inactive) | 14.1 µM (inactive) | 3.43 µM (inactive) | 15.6 µM (inactive) | 29.9 µM (inactive) | 17.9 µM (inactive) | 47.8 µM (inactive) | 29 µM (inactive) | 24 µM (inactive) | 28.8 µM (inactive)
4 | O=NC1C(Cl)C2CC1C1C(Br)C(Br)CC21 (stereo unspecified) | > 100 µM (inactive) | > 100 µM (inactive) | > 100 µM (inactive) | > 100 µM (inactive) | > 100 µM (inactive) | > 100 µM (inactive) | > 100 µM (inactive) | > 100 µM (inactive) | > 100 µM (inactive) | > 100 µM (inactive) | > 100 µM (inactive) | > 100 µM (inactive) | > 100 µM (inactive) | > 100 µM (inactive) | > 100 µM (inactive) | > 100 µM (inactive) | > 100 µM (inactive) | > 100 µM (inactive) | > 100 µM (inactive)
5 | CCOc1ccc(C2c3[nH]c4ccccc4c3CCN2C(=O)c2cccs2)cc1 (stereo unspecified) | 3.06 µM (inactive) | 2.34 µM (inactive) | 7.35 µM (inactive) | 44.5 µM (inactive) | 37.7 µM (inactive) | 6.43 µM (inactive) | 8.47 µM (inactive) | 21.1 µM (inactive) | > 100 µM (inactive) | > 100 µM (inactive) | 88.5 µM (inactive) | 9.04 µM (inactive) | 6.04 µM (inactive) | 4.22 µM (inactive) | 36.4 µM (inactive) | 4.59 µM (inactive) | 78.3 µM (inactive) | 9.14 µM (inactive) | 35.6 µM (inactive)
6 | CC(=O)O[C@H]1C#C/C=C\C#CC[C@@H]2C(=O)N(C(=O)OC(C)(C)C)[C@@H]12 | 24.3 µM (inactive) | 25.7 µM (inactive) | 85.7 µM (inactive) | 4 µM (inactive) | 28.3 µM (inactive) | 15.7 µM (inactive) | 22.2 µM (inactive) | 48.8 µM (inactive) | 26.9 µM (inactive) | > 100 µM (inactive) | 7.87 µM (inactive) | 2.45 µM (inactive) | 14.8 µM (inactive) | > 100 µM (inactive) | 14.5 µM (inactive) | > 67.3 µM (inactive) | 41.2 µM (inactive) | 6.46 µM (inactive) | 21.5 µM (inactive)
7 | Cn1c2ccc(F)cc2c2ccc3c(c21)C(=O)C=CC3=O | 20.3 µM (inactive) | 1.63 µM (inactive) | 16 µM (inactive) | 5.85 µM (inactive) | 12.1 µM (inactive) | 20.2 µM (inactive) | 7.08 µM (inactive) | 2.66 µM (inactive) | 6.22 µM (inactive) | 43.6 µM (inactive) | 8.71 µM (inactive) | 0.598 µM (active) | 20.5 µM (inactive) | 5.14 µM (inactive) | 9.35 µM (inactive) | 8.67 µM (inactive) | 23.1 µM (inactive) | 4.23 µM (inactive) | 33.3 µM (inactive)
8 | COc1ccc2/c(=C/c3ccc(N(C)C)cc3)c3cc(-c4ccccc4)[n+](C)n3c2c1 | 0.265 µM (active) | 0.057 µM (active) | 0.817 µM (active) | 0.405 µM (active) | 0.139 µM (active) | 9.66 µM (inactive) | 0.0264 µM (active) | 0.15 µM (active) | 0.0931 µM (active) | 0.52 µM (active) | 0.191 µM (active) | 0.0218 µM (active) | 0.199 µM (active) | 0.347 µM (active) | 0.0568 µM (active) | 0.09 µM (active) | 0.18 µM (active) | 1.2 µM (inactive) | 0.285 µM (active)
9 | CC(=O)Oc1cc(-c2oc3cc(OC(C)=O)c(C4OC(CO)C(O)C(O)C4O)c(OC(C)=O)c3c(=O)c2O)c(OC(C)=O)cc1O (stereo unspecified) | 91.8 µM (inactive) | > 100 µM (inactive) | > 100 µM (inactive) | > 100 µM (inactive) | > 100 µM (inactive) | > 100 µM (inactive) | > 100 µM (inactive) | > 100 µM (inactive) | 26.3 µM (inactive) | > 100 µM (inactive) | > 100 µM (inactive) | > 100 µM (inactive) | > 100 µM (inactive) | > 100 µM (inactive) | > 100 µM (inactive) | > 100 µM (inactive) | > 100 µM (inactive) | > 100 µM (inactive) | 60.4 µM (inactive)
10 | COC(=O)/C=C\S/C(=C(/c1ccccc1)n1ccc(C(=O)OC)n1)c1ccccc1 | > 100 µM (inactive) | > 100 µM (inactive) | 26.5 µM (inactive) | 7.48 µM (inactive) | 43.1 µM (inactive) | 47.6 µM (inactive) | > 100 µM (inactive) | 82.8 µM (inactive) | 20.9 µM (inactive) | > 100 µM (inactive) | 23.7 µM (inactive) | > 100 µM (inactive) | 3.23 µM (inactive) | 21.9 µM (inactive) | 35.9 µM (inactive) | 16.7 µM (inactive) | 15.7 µM (inactive) | > 100 µM (inactive) | 6.04 µM (inactive)
11 | CN(C)CCCN1C(=S)N(CCCN(C)C)c2c3cc(O)ccc3nc3c([N+](=O)[O-])ccc1c23 | 1.94 µM (inactive) | 2.14 µM (inactive) | 4.08 µM (inactive) | 0.703 µM (active) | 7.05 µM (inactive) | 6.07 µM (inactive) | 1.12 µM (inactive) | 1.96 µM (inactive) | 2.38 µM (inactive) | 11.8 µM (inactive) | 6.7 µM (inactive) | 3.09 µM (inactive) | 5.13 µM (inactive) | 2.61 µM (inactive) | 1.87 µM (inactive) | 2.05 µM (inactive) | 6.47 µM (inactive) | 1.66 µM (inactive) | 3.37 µM (inactive)
12 | COc1cccc(C[C@H]2COC(=O)[C@]2(O)Cc2cccc(OC)c2)c1 | > 100 µM (inactive) | > 100 µM (inactive) | 26.5 µM (inactive) | > 100 µM (inactive) | > 100 µM (inactive) | 66.5 µM (inactive) | > 100 µM (inactive) | > 100 µM (inactive) | 79.6 µM (inactive) | > 100 µM (inactive) | 60.5 µM (inactive) | 72.6 µM (inactive) | 60.1 µM (inactive) | 90.4 µM (inactive) | > 100 µM (inactive) | > 100 µM (inactive) | > 100 µM (inactive) | 18.1 µM (inactive) | > 100 µM (inactive)
13 | C[C@H](CCC(=O)NCC(=O)O)[C@H]1CC[C@H]2[C@@H]3[C@H](O)C[C@@H]4C[C@H](O)CC[C@]4(C)[C@H]3CC[C@]12C | > 100 µM (inactive) | > 100 µM (inactive) | > 100 µM (inactive) | > 100 µM (inactive) | > 100 µM (inactive) | > 100 µM (inactive) | > 100 µM (inactive) | > 100 µM (inactive) | > 100 µM (inactive) | > 100 µM (inactive) | 71.6 µM (inactive) | > 100 µM (inactive) | > 100 µM (inactive) | > 100 µM (inactive) | > 100 µM (inactive) | > 100 µM (inactive) | > 100 µM (inactive) | > 100 µM (inactive) | 0.75 µM (active)
14 | CC(=O)OC1CC2CC(=O)CC1N2C (stereo unspecified) | > 100 µM (inactive) | > 100 µM (inactive) | > 100 µM (inactive) | > 100 µM (inactive) | > 100 µM (inactive) | > 100 µM (inactive) | > 100 µM (inactive) | > 100 µM (inactive) | > 100 µM (inactive) | > 100 µM (inactive) | > 100 µM (inactive) | > 100 µM (inactive) | > 100 µM (inactive) | > 100 µM (inactive) | > 100 µM (inactive) | > 100 µM (inactive) | > 100 µM (inactive) | > 100 µM (inactive) | > 100 µM (inactive)
